# Molecular target: alanyl aminopeptidases (APN) (Homo sapiens, UniProt P15144)
# Test: Inhibition of alanyl aminopeptidase enzymatic activity, fluorogenic substrate (Ala)2-rhodamine 110
# Assay type: biochemical
# Conditions: Table 3, starred values = ID50; read-out: ID50 APN (values marked with *)
# Description: The inhibition characteristics measured are referred to as IC-50 values or ID50 values (the latter marked with “*”) for said enzyme. The enzymatic activity was determined by means of the fluorogenic substrate/product (Ala)2-rhodamine 110.
# Chain of alanyl aminopeptidases (APN) (P15144 whole entry, species assumed): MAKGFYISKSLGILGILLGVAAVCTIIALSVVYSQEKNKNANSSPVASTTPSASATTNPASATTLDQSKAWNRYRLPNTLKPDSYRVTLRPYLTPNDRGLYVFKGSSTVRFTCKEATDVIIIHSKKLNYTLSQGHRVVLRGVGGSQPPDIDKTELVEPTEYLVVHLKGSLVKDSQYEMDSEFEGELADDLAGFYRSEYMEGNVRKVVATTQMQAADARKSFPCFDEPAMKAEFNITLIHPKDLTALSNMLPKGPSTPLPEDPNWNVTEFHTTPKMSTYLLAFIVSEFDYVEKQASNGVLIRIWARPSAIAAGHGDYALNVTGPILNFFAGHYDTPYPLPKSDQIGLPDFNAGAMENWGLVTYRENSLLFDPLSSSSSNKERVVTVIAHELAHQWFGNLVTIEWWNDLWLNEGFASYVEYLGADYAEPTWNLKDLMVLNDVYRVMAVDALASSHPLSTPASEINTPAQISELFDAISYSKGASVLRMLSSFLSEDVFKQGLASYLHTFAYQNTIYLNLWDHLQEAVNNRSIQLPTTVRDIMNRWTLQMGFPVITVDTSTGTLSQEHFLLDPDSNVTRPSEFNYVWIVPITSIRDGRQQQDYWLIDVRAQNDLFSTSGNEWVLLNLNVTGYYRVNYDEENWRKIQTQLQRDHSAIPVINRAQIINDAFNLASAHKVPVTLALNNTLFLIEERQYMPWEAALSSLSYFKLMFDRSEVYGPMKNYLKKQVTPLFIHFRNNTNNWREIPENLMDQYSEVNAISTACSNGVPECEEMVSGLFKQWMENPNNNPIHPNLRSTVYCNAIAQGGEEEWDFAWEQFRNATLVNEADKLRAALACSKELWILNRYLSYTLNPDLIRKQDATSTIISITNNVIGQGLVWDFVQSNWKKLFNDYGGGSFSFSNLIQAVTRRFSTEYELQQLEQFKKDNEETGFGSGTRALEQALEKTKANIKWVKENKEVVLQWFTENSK
row,IC50 [µM],Compound
1,47.2,CC1=C(C#N)C(=O)N(CC(C)O)C(=O)/C1=C/c1ccc(-c2ccc(Br)cc2)o1 (stereo not drawn) [A3.252]
2,48.1,O=C(O)CC1S/C(=N/N=C/c2ccco2)NC1=O (stereo not drawn) [A3.254]
3,49.4,O=C(CNC(=O)c1ccccc1)N/N=C/c1ccco1 [A3.259]
4,53.2,Cc1ccc(Cn2c(SCCC(=O)O)nc3c2c(=O)[nH]c(=O)n3C)cc1 [A3.267]
5,55,Cc1ccc(/C=C(\NC(=O)c2ccccc2)C(=O)NCCN2CCOCC2)o1 [A3.273]
6,63.1,CC(=O)Nc1cccc(C(=O)N/N=C/c2ccc(C)o2)c1 [A3.285]
7,64.9,COc1ccc(C(=O)NCC(=O)N/N=C/c2ccco2)cc1OC [A3.288]
8,65.1,O=c1cc(CSc2nnc(-c3ccco3)c(-c3ccco3)n2)c2ccccc2[nH]1 [A3.289]
9,66,COc1ccc(CSCC(=O)N/N=C/c2ccco2)cc1 [A3.291]
10,67.1,Cc1cccc(C(=O)Nc2ccc(C(=O)N/N=C/c3ccco3)cc2)c1 [A3.293]
11,73.1,O=C(Cc1ccccc1)NCC(=O)N/N=C/c1ccco1 [A3.300]
12,75.8,O=C(N/N=C/c1ccco1)c1cc(-c2ccccc2Cl)n[nH]1 [A3.303]
13,79.8,Cn1c(=O)c2c(ncn2CC(=O)N/N=C/C=C\c2ccco2)n(C)c1=O [A3.307]
14,81.8,Cc1ccc(OCC(=O)N/N=C\c2ccco2)c(C)c1 [A3.309]
15,85.8,O=C(CCNC(=O)c1ccccc1Br)N/N=C/c1ccco1 [A3.311]
16,91.2,O=C(CNC(=O)c1ccccc1Br)N/N=C/c1ccco1 [A3.314]
17,98.8,O=C(CNC(=O)c1ccccc1O)N/N=C/c1ccco1 [A3.318]
18,103,C#CCN1C(c2cnccn2)=NC(CC(C)C)C1C(=O)Nc1c(C)cccc1C (stereo not drawn) [A3.319]
19,113,Cn1cccc1CC(=O)N/N=C\c1ccco1 [A3.320]

row,IC50 [µM],Compound
1,126,COC(=O)c1c(N)ncn1-c1ccccc1 [A3.323]
2,132,O=C(N/N=C\C=C\c1ccco1)c1cc(-c2cccs2)n[nH]1 [A3.324]
3,134,CC(=O)Oc1ccc2c(=O)c(-c3cnn(-c4ccccc4)c3)c(C(F)(F)F)oc2c1OC(C)=O [A3.325]
4,146,CC(C(=O)N/N=C/c1ccco1)n1nnc2ccccc21 (stereo not drawn) [A3.327]
5,146,CN1C(=O)C(Cc2c[nH]c3ccccc23)NC1=S (stereo not drawn) [A3.330]
6,154,CCCC1NC(=S)N(c2ccccc2)C1=O (stereo not drawn) [A3.332]
7,155,O=C(CNC(=O)c1cccc(F)c1)N/N=C/c1ccco1 [A3.333]
8,161,C/C(=N\NC(=O)c1cc(-c2ccco2)n[nH]1)c1ccco1 [A3.334]
9,161,COc1cc(C(=O)NCC(=O)N/N=C\c2ccc(C)o2)cc(OC)c1OC [A3.335]
10,169,CCOC(=O)c1c(-c2ccccc2)c[nH]c1N [A3.336]
11,223,O=C(CN1C(=O)C2C3C=CC(C3)C2C1=O)Nc1ccc(C(F)(F)F)cc1 (stereo not drawn) [A3.337]
12,230,CN(C)c1ccc(C2NCCS2)cc1 (stereo not drawn) [A3.338]
13,208,O=C(/C=C/c1ccco1)NCCCN1CCOCC1 [A3.339]
14,222,COc1cccc(C(=O)NCC(=O)N/N=C/c2ccc([N+](=O)[O-])o2)c1 [A3.340]
15,238,COC(=O)c1cc(C(=O)NC2CCSC2=O)cc([N+](=O)[O-])c1 (stereo not drawn) [A3.341]
16,231,COc1ccc(C2C(C(=O)c3ccccc3)C(c3ccccc3)C(C(=O)NCc3ccc(F)cc3)N2C(=O)NC2CCCCC2)cc1 (stereo not drawn) [A3.342]
17,293,C/C(=C\c1ccc(C(C)C)cc1)C1NCC(c2ccc([N+](=O)[O-])cc2)O1 (stereo not drawn) [A3.345]
18,294,O=C(N/N=C/c1ccco1)c1ccc(NCc2ccccc2)cc1 [A3.346]
19,305,O=C(N/N=C/c1ccco1)c1ccc([N+](=O)[O-])cc1 [A3.347]

# Same assay, conditions: Table 3, unstarred values; read-out: IC50APN
row,IC50 [µM],Compound
1,43.6,COC(=O)C(NC(=O)c1ccccc1)(Nc1sc2c(c1C#N)CCC(C(C)(C)C)C2)C(F)(F)F (stereo not drawn) [A3.239]
2,44.2,O=C(/C=C/c1ccco1)Nc1cccc(C(=O)O)c1 [A3.240]
3,44.2,Cc1ccc(/C=N/NC(=O)c2ccc(N3CCCC3=O)cc2)o1 [A3.241]
4,44.2,O=C(N/N=C1/C(=O)Nc2ccc(F)cc21)/C(=C/c1ccccc1)NC(=O)c1ccccc1 [A3.242]
5,44.7,COc1ccccc1C(=O)N/N=C/c1ccco1 [A3.243]
6,45,CC1CCN(C(=O)/C(=C\c2ccco2)NC(=O)c2ccccc2)CC1 [A3.244]
7,45,Cc1ccc(/C=C/C(=O)Nc2ccccc2C(N)=O)o1 [A3.245]
8,45.4,Cc1ccccc1C(=O)Nc1ccc(C(=O)N/N=C/c2ccco2)cc1 [A3.246]
9,45.4,O=C(N/N=C/c1cccc([N+](=O)[O-])c1)c1ccco1 [A3.247]
10,46.6,CC(C)Oc1ccc(Br)cc1C(=O)N/N=C/c1ccco1 [A3.248]
11,46.6,Nc1nonc1-n1nnc(C(=O)N/N=C/c2ccco2)c1-c1ccccc1 [A3.249]
12,46.6,CCn1c(/C=C/c2ccco2)nc2ccccc21 [A3.250]
13,47,COc1ccc(N(C(C)C(=O)N/N=C/c2ccco2)S(C)(=O)=O)cc1 (stereo not drawn) [A3.251]
14,47.3,O=C(COc1ccc2ccccc2c1Br)N/N=C/c1ccco1 [A3.253]
15,48.2,Cc1cc(C(=O)N/N=C/c2ccco2)[nH]n1 [A3.255]
16,48.4,CSCCC(Nc1ncnc2c1oc1ccccc12)C(=O)O (stereo not drawn) [A3.256]
17,48.7,CCOC(=O)C(NC(=O)c1ccc(OC)cc1)(N1CCCC1=O)C(F)(F)F (stereo not drawn) [A3.257]
18,49.5,O=C(C[N+](=O)[O-])C1=CC2OC=CC2N1 (stereo not drawn) [A3.258]
19,49.9,CCOC(=O)c1cc(Br)ccc1-c1ccc(/C=C2\C(=O)N=C(O)C(C#N)=C2C)o1 [A3.260]
20,50,NC(=S)N/N=C/c1ccco1 [A3.261]
21,50.1,CCOC(=O)c1ncn(C)c1N [A3.262]

row,IC50 [µM],Compound
1,50.2,Cc1ccc(/C=N/NC(=O)c2cc(C)oc2C)o1 [A3.263]
2,50.3,CCCCCCCC(=O)N/N=C/c1ccco1 [A3.264]
3,51.1,Cc1ccc(/C=N\NC(=O)Cc2cccs2)o1 [A3.265]
4,51.3,CC1CCc2c(sc(NC(=O)C(C(F)(F)F)C(F)(F)F)c2C#N)C1 (stereo not drawn) [A3.266]
5,52.1,CCOC(=O)c1cc(-c2ccc(/C=C3/C(=O)NC(=O)C(C#N)=C3C)o2)ccc1Cl [A3.268]
6,50,CC(/C=C/c1ccco1)=N\NC(=O)COc1ccc(C(C)(C)C)cc1 [A3.269]
7,54,CCCOC(=O)c1cc(-c2ccc(/C=C3\C(=O)N(CCO)C(=O)C(C#N)=C3C)o2)ccc1Cl [A3.270]
8,54.2,O=C(N/N=C/c1cc(Br)ccc1OC(=O)c1ccc([N+](=O)[O-])cc1)/C(=C\c1ccc2c(c1)OCO2)NC(=O)c1ccccc1 [A3.271]
9,54.4,CC(=O)c1ccc(NC(=O)/C=C/c2ccc(C)o2)cc1 [A3.272]
10,55.6,O=C(CNS(=O)(=O)c1ccc2c(c1)OCCO2)N/N=C/c1ccco1 [A3.274]
11,55.8,O=C(NCCc1ccccc1)/C(=C\c1ccco1)NC(=O)c1ccccc1 [A3.275]
12,56.4,COc1ccccc1NC(=O)/C=C\c1ccco1 [A3.276]
13,56.8,COc1ccc(OC)c(NC(=O)/C=C/c2ccc(C)o2)c1 [A3.277]
14,58.3,C/C(=N\NC(=O)c1cc(-c2ccccc2)n[nH]1)c1ccco1 [A3.278]
15,58.4,CCOc1ccccc1NC(=O)c1c(NCc2cccc(OC)c2)sc2c1CCC2 [A3.279]
16,60,O=C(CNC(=O)c1ccccc1F)N/N=C/c1ccc([N+](=O)[O-])o1 [A3.280]
17,62.4,O=C(Nc1ccccc1F)c1ccc([N+](=O)[O-])o1 [A3.281]
18,62.7,O=C(N/N=C/C=C\c1ccco1)c1cccs1 [A3.282]
19,62.7,O=C(N/N=C/c1ccco1)c1cccc(Br)c1 [A3.283]
20,62.7,Cc1ccc(/C=N/NC(=O)COc2cccc(Cl)c2)o1 [A3.284]
21,65.8,Cc1nc(NC(C)C(=O)O)c2nc(C)oc2n1 (stereo not drawn) [A3.290]

row,IC50 [µM],Compound
1,66.6,O=C1C(Cc2ccc(O)cc2)NC(=S)N1c1ccccc1 (stereo not drawn) [A3.292]
2,68,CC(=O)C1C(c2ccc(N(C)C)cc2)C2C(=O)N(C3CCCCC3)C(=O)N2C1c1sccc1C (stereo not drawn) [A3.294]
3,68,O=C1C(=Cc2ccc([N+](=O)[O-])o2)C(=O)c2ccccc21 [A3.295]
4,68.9,O=C(N/N=C/c1ccco1)c1ccc(F)cc1 [A3.296]
5,68.9,Cc1ccc(C(=O)N/C(=C\c2ccco2)C(=O)N2CCSCC2)cc1C [A3.297]
6,69.3,Cc1ccc(S(=O)(=O)N2CCC(C(=O)N/N=C/c3ccco3)CC2)cc1 [A3.298]
7,71.4,N#Cc1c(NC(=O)C(C(F)(F)F)C(F)(F)F)sc2c1CCCC2 [A3.299]
8,74.7,O=C(CCc1ccccc1)N/N=C/c1ccco1 [A3.302]
9,77.3,Oc1ccc(Cl)cc1/N=C/c1ccc(-c2ccc(F)cc2)o1 [A3.305]
10,82.9,O=C(CCn1nnc2ccccc21)N/N=C/c1ccco1 [A3.310]
11,87.5,O=C(COc1ccccc1)N/N=C/c1ccco1 [A3.312]
12,88.3,Cc1nc(-c2ccc(Br)cc2)c(CC(=O)O)s1 [A3.313]
13,92.2,O=C(N/N=C/c1ccco1)c1ccccc1[N+](=O)[O-] [A3.315]
14,92.1,COc1ccc(C2NCCS2)cc1OC (stereo not drawn) [A3.316]
15,93.6,COC(=O)CCC/C=C1/SC[C@@H](NC(=O)c2ccccc2)/C1=N/O [A3.317]
16,125,COc1c(OCC(O)C(C)(C)O)ccc2c1N=C1OC=CC1C2OC (stereo not drawn) [A3.321]
17,125,CC1=C(C#N)C(=O)N(CCO)C(=O)/C1=C\c1ccc(-c2ccc(C)c(Cl)c2)o1 [A3.322]
18,138,NCCCNC(=O)C1Cc2ncn(Cc3ccccc3[N+](=O)[O-])c2CN1Cc1ccccn1 (stereo not drawn) [A3.326]
19,142,COc1cccc(/C=N/NC(=O)c2ccn(C)n2)c1O [A3.328]
20,143,O=C(Cc1cccs1)N/N=C\c1ccco1 [A3.329]
21,152,C/C(=N\NC(=O)c1ccco1)c1ccc(C)o1 [A3.331]

row,Compound,IC50 [µM]
1,O=[N+]([O-])c1ccc(C2OCN3COCC23)cc1 (stereo not drawn) [A3.287],64.5
